# Measurements published in patent publication US20080207569A1, “Methods for the treatment of liver diseases” (priority 2007, published 2008).
# Columns and labels:
# [1] = test system: Fas-induced liver damage; assay: Fas driven model of liver damage (activating antibody Jo-2), plasma ALT activity; type: in vivo, male C57B1/6 mice; settings: 10 mg/kg PO; six hours after Jo-2 IV; average of 2 studies, p<0.05 in each
# Procedure: (§1) In vivo efficacy of RO-113-0830 was assessed using male C57B1/6 mice (Simonsen Labs) in two well-established models of liver damage. The mice were allowed to acclimate for at least three days.
# In a Fas driven model of liver damage, an activating antibody to Fas (Jo-2) was administered IV. Six hours later, animals were anesthetized with Nembutal (50 mg/kg IP), and blood was taken by cardiac puncture. Plasma ALT activity was determined using a kit from Sigma-Aldrich.
# [2] = test system: TNF-α/D-Galactosamine induced liver injury; assay: TNF-α model of liver injury (TNFα/D-Gln), plasma ALT activity; type: in vivo, male C57B1/6 mice
# Procedure: TNF-α is a cytokine that is implicated in inducing liver injury in a variety of acute and chronic liver diseases such as chronic HCV and acute liver failure. An exemplary in vivo model to test pharmacological agents against TNF-α induced injury is the TNF-α/D-Gal model of liver injury in mice. In this model, mice are treated with TNF-α/D-Gal and compound is administered to evaluate its ability to protect against liver damage. The compound is administered either before, at the time of or after the treatment with TNF-α/D-Gal, and followed for a period of approximately 6 hours. […]
# Multiple outcome measures are used for this evaluation. […] The extent of liver damage can be graded by examining liver samples prepared and evaluated microscopically by trained observers. […] In certain embodiment, compounds described herein protect against TNF-α/D-Gal induced liver injury as determined by these parameters. In certain embodiment, compounds described herein protect against Fas induced liver injury as determined by these parameters. […]
# In vivo efficacy of RO-113-0830 was assessed using male C57B1/6 mice (Simonsen Labs) in two well-established models of liver damage. […]
# In the TNF-α model of liver injury, D-Galactosamine (D-Gln) (800 mg/kg) and TNFα (20 or 40 μg/kg) were injected IP. […] Plasma ALT activity was determined using a kit from Sigma-Aldrich.
# [3] = test system: Huh7 human hepatoma cell line (the 21-5 cell line); settings: read-out: IC50 for cytotoxicity (concentration decreasing cell viability by 50%); 72 hr; host cell rRNA levels by TaqMan RT-PCR
# Excerpt: Cells were processed 72 hr later when the cells were still sub-confluent.
# [4] = test system: TNF-α/D-Galactosamine induced liver injury; assay: TNF-α model of liver injury, 24 hour survival; type: in vivo, male C57B1/6 mice; settings: TNF-α/D-Gln IP; average from 3 studies; p=0.03 vs control mice (27±7.3%)
# Procedure: TNF-α is a cytokine that is implicated in inducing liver injury in a variety of acute and chronic liver diseases such as chronic HCV and acute liver failure. An exemplary in vivo model to test pharmacological agents against TNF-α induced injury is the TNF-α/D-Gal model of liver injury in mice. In this model, mice are treated with TNF-α/D-Gal and compound is administered to evaluate its ability to protect against liver damage. The compound is administered either before, at the time of or after the treatment with TNF-α/D-Gal, and followed for a period of approximately 6 hours. Allowing this model to persist past 6 hours is a variation used to determine the improved survival afforded by compound treatment.
# as §1
# To determine a benefit on survival, TNF-α model, D-Galactosamine (D-Gln) (800 mg/kg) and TNF-α (20 or 40 μg/kg) were injected IP, and mice were allowed to survive for 24 hours post insult. All morbid mice were euthanized with 125 mg/kg of Nembutal IP. The average 24 hour survival from 3 studies was 27±7.3% and. 55±7.6% (p=0.03) in the TNFα/D-Gln control mice and RO-113-0830-treated mice, respectively.
# [5] = test system: full-length HCV replicon in Huh7 human hepatoma cell line (21-5); assay: HCV RNA replicon antiviral evaluation assay; type: cell-based, hepatitis C virus; settings: 72 hr; HCV RNA replicon levels by TaqMan RT-PCR; read-out: EC50 (concentration inhibition virus replication by 50%)
# Procedure: The assay was conducted as described by Pietschmann, T. et al., supra.
# Human interferon alpha-2b was included in each run as a positive control compound. Subconfluent cultures of the ET line were plated out into 96-well plates that were dedicated for the analysis of cell numbers (cytotoxicity) or antiviral activity and the next day drugs were added to the appropriate wells. Cells were processed 72 hr later when the cells were still sub-confluent. HCV RNA replicon levels and the toxic concentration of drug that reduces cell numbers, as indicated by host cell ribosomal RNA (rRNA) levels, were assessed by TaqMan RT-PCR. The EC50 (concentration inhibition virus replication by 50%), IC50 (concentration decreasing cell viability by 50%) and SI50 (selective index: IC50/EC50) values were calculated.
# [6] = test system: bile duct ligation (BDL) induced liver injury and hepatic fibrosis; assay: Bile duct ligation model of liver fibrosis; type: in vivo, C57/BL6 wild-type mice; settings: 10 mg/kg once a day by gavage
# Procedure: The bile duct ligation model is a well characterized model of liver fibrosis. Briefly, C57/BL6 wild-type mice 6 to 8 weeks of age were subjected to bile duct ligation (BDL) for 14 days. Sham-operated wild type mice were used as controls. Either RO 113-0830 or CMC (carboxymethylcellulose) were administered by gavage in a dose of 10 mg/kg body weight once a day. Hepatocyte apoptosis was quantified by the TUNEL assay and immunofluorescence for activated caspases 3/7. Liver injury was assessed by histopathology, and quantification of bile infarcts. Hepatic fibrosis was assessed by Sirius red staining and quantitative morphometry. Real-time polymerase chain reaction (PCR) was used to measure mRNA transcripts for collagen 1 alpha (I) and alpha-smooth muscle actin.
smiles,measurement,setting,value
O=C(NO)C1(CS(=O)(=O)c2ccc(Oc3ccc(Cl)cc3)cc2)CCOCC1 [RO-113-0830],reduction of Fas-induced elevation in plasma ALT activity,[1],50%
same,"plasma ALT activity, effect in words","[2]; 0.001-30 mg/kg PO 30 minutes before insult, six hours",dose-dependently decreased plasma ALT activity
same,ED50 for decrease of plasma ALT activity,"[2]; PO by gavage 30 minutes before TNFα/D-Gln insult, ALT six hours later, average from 4 studies",0.26 ± 0.08 mg/kg
same,IC50,[3],~25 µM
same,24 hour survival,[4],55±7.6%
same,EC50,[5],0.07 µM
same,reduction of Sirius red staining of hepatic collagen,[6]; 14 days of BDL,3 fold
same,reduction in the number of bile infarcts vs vehicle,"[6]; 14 days of BDL, histologic examination",> 70%
same,decrease in TUNEL-positive hepatocytes vs vehicle,"[6]; 14 days of BDL, p<0.01",3 fold
same,decrease in caspase 3/7-positive hepatocytes vs vehicle,"[6]; 14 days of BDL, p<0.01",5 fold
same,reduction of hepatic mRNA for alpha-smooth muscle actin vs vehicle,"[6]; 14 days of BDL, real-time PCR",> 60%
same,reduction of hepatic mRNA for collagen I vs vehicle,"[6]; 14 days of BDL, real-time PCR",> 60%
same,overall animal survival following 14 days of BDL,[6]; p<0.05,significantly enhanced
